pIC50: −log10 of the molar value. Read-outs that look alike come from different tables or passages of the source.
What was measured:
PDE4 = test: Radioenzymatic phosphodiesterase assay: PDE4 inhibition (selectivity); conditions: Table 2, PDE4 of vascular smooth muscle; for PDE4 percentage of inhibition at 10 μM: 10 μM test compound
Description: (§1) 3 g of tunica media from bovine aorta was cut in small piece and homogenized in a glass potter with 7 volumes/weight of buffer A containing protease inhibitors cocktails (20 mM Tris-HCl, 0.25 M saccharose, 2 mM magnesium acetate, 1 mM dithiothreitol, 5 mM EGTA, 2000 U/ml aprotinine, 10 mg/l leupeptine, 10 mg/l of soybean chemotrypsin inhibitor). The homogenate was centrifuged at 875000 g for 1 h and the surpernant was then transferred in DEAE-Sephacel (15×1.6 cm). The column was equilibrated beforehand with a buffer B (buffer A without saccharose, d'EGTA and protease inhibitors). […] Fractions were aliquoted and stored at −80° C. until further use.
(§2) The monophosphated adenosine or guanosine released by the hydrolysis of tritiated cyclic nucleotides was transformed into tritiated adenosine or guanosine by excess of nucleotidase. The obtained nucleoside was separated from nucleotides by anion exchange chromatography. Nucleoside radioactivity was determined by liquid scintillation.
(§3) The phosphodiesterase inhibitory activity of compounds was evaluated on other isoforms of phosphodiesterases such as PDE3, and PDE4 of vascular smooth muscle.

PDE3 = test: Radioenzymatic phosphodiesterase assay: PDE3 inhibition (selectivity); conditions: Table 2; 10 μM test compound; PDE3 of vascular smooth muscle
Description: as §1, §2, §3

PDE2 = molecular target: T1, PDE2 (Bos taurus, UniProt P14099); test: Radioenzymatic phosphodiesterase assay: PDE2 inhibition; type: biochemical, bovine; conditions: read-out: PDE2 percentage of inhibition at 10 μM
T1 sequence (P14099 1-921): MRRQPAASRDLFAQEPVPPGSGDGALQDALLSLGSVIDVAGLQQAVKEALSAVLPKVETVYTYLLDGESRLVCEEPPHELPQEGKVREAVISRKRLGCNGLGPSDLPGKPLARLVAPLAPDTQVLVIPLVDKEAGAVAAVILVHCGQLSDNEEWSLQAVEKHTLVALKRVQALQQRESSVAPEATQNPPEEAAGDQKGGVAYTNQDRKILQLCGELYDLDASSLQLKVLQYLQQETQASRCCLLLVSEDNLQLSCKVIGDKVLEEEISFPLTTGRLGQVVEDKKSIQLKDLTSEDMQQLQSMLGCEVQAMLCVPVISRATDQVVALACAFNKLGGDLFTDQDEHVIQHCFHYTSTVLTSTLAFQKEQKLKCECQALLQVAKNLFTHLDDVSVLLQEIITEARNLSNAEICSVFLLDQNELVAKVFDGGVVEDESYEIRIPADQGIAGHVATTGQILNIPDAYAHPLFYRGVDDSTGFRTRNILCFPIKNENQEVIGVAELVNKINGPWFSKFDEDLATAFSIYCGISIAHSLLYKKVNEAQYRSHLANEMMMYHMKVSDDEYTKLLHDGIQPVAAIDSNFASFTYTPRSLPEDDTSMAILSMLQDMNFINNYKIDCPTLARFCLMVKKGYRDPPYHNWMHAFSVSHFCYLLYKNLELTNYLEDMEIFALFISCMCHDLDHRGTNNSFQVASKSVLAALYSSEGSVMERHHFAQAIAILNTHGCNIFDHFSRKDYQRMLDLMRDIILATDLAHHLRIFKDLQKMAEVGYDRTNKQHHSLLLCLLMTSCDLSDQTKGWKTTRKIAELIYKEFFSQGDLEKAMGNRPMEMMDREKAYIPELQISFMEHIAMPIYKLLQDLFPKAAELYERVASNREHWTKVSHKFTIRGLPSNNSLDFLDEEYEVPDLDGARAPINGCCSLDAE
Description: Nucleoside radioactivity was determined by liquid scintillation.

Row | Structure (SMILES) | PDE4 percentage of inhibition at 10 μM (PDE4) [%] | PDE3 percentage of inhibition at 10 μM (PDE3) [%] | inhibition at 10 µM (PDE2; Table 1, 10 μM test compound) [%] | inhibition at 10 µM (PDE2) [%] | pIC50 (PDE4; read-out: PDE4 IC50)
1 | COc1ccccc1-c1cc2c(cc1OC)N(C)C(=O)CN=C2c1cccc(C(N)=O)c1 [Example 21, 3-[8-Methoxy-7-(2-methoxy-phenyl)-1-methyl-2-oxo-2,3-dihydro-1H-benzo[e][1,4]diazepin-5-yl]-benzamide] | 18 | 9 | 98 | – | –
2 | COc1ccc(-c2cc3c(cc2OC)N(C)C(=O)CN=C3c2cccc(C(N)=O)c2)cc1 [Example 22, 3-[8-Methoxy-7-(4-methoxy-phenyl)-1-methyl-2-oxo-2,3-dihydro-1H-benzo[e][1,4]diazepin-5-yl]-benzamide] | 50 | 22 | 99 | – | –
3 | COc1cc2c(cc1-c1ccccc1Cl)C(c1cccc(C(N)=O)c1)=NCC(=O)N2C [Example 23, 3-[7-(2-Chloro-phenyl)-8-methoxy-1-methyl-2-oxo-2,3-dihydro-1H-benzo[e][1,4]diazepin-5-yl]-benzamide] | 20 | 25 | 95 | – | –
4 | COc1ccc(OC)c(-c2ccc3c(c2)C(c2cccc(C(N)=O)c2)=NCC(=O)N3C)c1 [Example 31, 3-[7-(2,5-Dimethoxy-phenyl)-1-methyl-2-oxo-2,3-dihydro-1H-benzo[e][1,4]diazepin-5-yl]-benzamide] | 25 | 0 | 99 | – | –
5 | COc1cccc(OC)c1-c1ccc2c(c1)C(c1cccc(C(N)=O)c1)=NCC(=O)N2C [Example 32, 3-[7-(2,6-Dimethoxy-phenyl)-1-methyl-2-oxo-2,3-dihydro-1H-benzo[e][1,4]diazepin-5-yl]-benzamide] | 27 | 0 | 100 | – | –
6 | COc1ccc(C2=NCC(=O)N(C)c3ccc(-c4c(OC)cccc4OC)cc32)cc1 [Example 75, 7-(2,6-Dimethoxy-phenyl)-5-(4-methoxy-phenyl)-1-methyl-1,3-dihydro-benzo[e][1,4]diazepin-2-one] | 78 | 4 | 99 | – | –
7 | COc1cc2c(cc1-c1c(OC)cccc1OC)C(c1cccc(C(N)=O)c1)=NCC(=O)N2C [Example 92, 3-[7-(2,6-Dimethoxy-phenyl)-8-methoxy-1-methyl-2-oxo-2,3-dihydro-1H-benzo[e][1,4]diazepin-5-yl]-benzamide] | 23 | 52 | 97 | – | –
8 | COc1cc2c(cc1-c1ccccc1Oc1ccccc1)C(c1cccc(C(N)=O)c1)=NCC(=O)N2C [Example 93, 3-[8-Methoxy-1-methyl-2-oxo-7-(2-phenoxy-phenyl)-2,3-dihydro-1H-benzo[e][1,4]diazepin-5-yl]-benzamide] | 56 | 72 | 98 | – | –
9 | COc1cccc(OC)c1-c1ccc2c(c1)C(c1ccc(F)cc1)=NCC(=O)N2C [Example 100, 7-(2,6-Dimethoxy-phenyl)-5-(4-fluoro-phenyl)-1-methyl-1,3-dihydro-benzo[e][1,4]diazepin-2-one] | 77 | 0 | – | 96 | –
10 | COc1cc2c(cc1-c1ccccc1)C(c1ccccc1Br)=NCC(=O)N2 [Example 102, 5-(2-Bromo-phenyl)-8-methoxy-7-phenyl-1,3-dihydro-benzo[e][1,4]diazepin-2-one] | – | – | 48 | – | –
11 | COCCCc1cccc(C2=NCC(=O)N(C)c3cc(OC)c(-c4ccccc4)cc32)c1 [Example 103, 8-Methoxy-5-[3-(3-methoxy-propyl)-phenyl]-1-methyl-7-phenyl-1,3-dihydro-benzo[e][1,4]diazepin-2-one] | – | – | 96 | – | –
12 | COc1cc2c(cc1-c1ccccc1)C(c1ccccc1Br)=NCC(=O)N2C [Example 104, 5-(2-Bromo-phenyl)-8-methoxy-1-methyl-7-phenyl-1,3-dihydro-benzo[e][1,4]diazepin-2-one] | – | – | 71 | – | –
13 | CCCCC#Cc1ccc(C2=NCC(=O)N(C)c3cc(OC)c(-c4ccccc4)cc32)cc1 [Example 105, 5-(4-Hex-1-ynyl-phenyl)-8-methoxy-1-methyl-7-phenyl-1,3-dihydro-benzo[e][1,4]diazepin-2-one] | – | – | – | 42 | –
14 | COCCCc1ccc(C2=NCC(=O)N(C)c3cc(OC)c(-c4ccccc4)cc32)cc1 [Example 106, 8-Methoxy-5-[4-(3-methoxy-propyl)-phenyl]-1-methyl-7-phenyl-1,3-dihydro-benzo[e][1,4]diazepin-2-one] | – | – | – | 47 | –
15 | COc1cc2c(cc1-c1ccccc1)C(c1ccc(CCCNC(=O)OC(C)(C)C)cc1)=NCC(=O)N2C [Example 107, {3-[4-(8-Methoxy-1-methyl-2-oxo-7-phenyl-2,3-dihydro-1H-benzo[e][1,4]diazepin-5-yl)-phenyl]-propyl}-carbamic acid tert-butyl ester] | – | – | – | 92 | –
16 | COc1ccc(C2=NCC(=O)N(C)c3cc(OC)c(-c4ccccc4OC)cc32)cc1 [Example 108, 8-Methoxy-5-(4-methoxy-phenyl)-7-(2-methoxy-phenyl)-1-methyl-1,3-dihydro-benzo[e][1,4]diazepin-2-one] | – | – | – | 99 | –
17 | COc1ccc(C2=NCC(=O)N(C)c3cc(OC)c(-c4c(OC)cccc4OC)cc32)cc1 [Example 109, 7-(2,6-Dimethoxy-phenyl)-8-methoxy-5-(4-methoxy-phenyl)-1-methyl-1,3-dihydro-benzo[e][1,4]diazepin-2-one] | 90 | 37 | 99 | – | 6.00
18 | COc1ccc(C2=NCC(=O)N(C)c3cc(OC)c(-c4cc(OC)ccc4OC)cc32)cc1 [Example 110, 7-(2,5-Dimethoxy-phenyl)-8-methoxy-5-(4-methoxy-phenyl)-1-methyl-1,3-dihydro-benzo[e][1,4]diazepin-2-one] | – | – | – | 99 | –
19 | COc1ccc(C2=NCC(=O)N(C)c3cc(OC)c(-c4c(F)cccc4OC)cc32)cc1 [Example 111, 7-(2-Fluoro-6-methoxy-phenyl)-8-methoxy-5-(4-methoxy-phenyl)-1-methyl-1,3-dihydro-benzo[e][1,4]diazepin-2-one] | – | – | – | 99 | –
20 | COc1ccc(C2=NCC(=O)N(C)c3cc(OC)c(-c4ccccc4Oc4ccccc4)cc32)cc1 [Example 112, 8-Methoxy-5-(4-methoxy-phenyl)-1-methyl-7-(2-phenoxy-phenyl)-1,3-dihydro-benzo[e][1,4]diazepin-2-one] | – | – | – | 99 | –
21 | COc1cc2c(cc1-c1ccccc1)C(c1ccc(Br)cc1)=NCC(=O)N2C [Example 113, 5-(4-Bromo-phenyl)-8-methoxy-1-methyl-7-phenyl-1,3-dihydro-benzo[e][1,4]diazepin-2-one] | – | – | 94 | – | –
22 | COc1cc2c(cc1-c1ccccc1)C(c1ccc(Br)cc1)=NCC(=O)N2 [Example 114, 5-(4-Bromo-phenyl)-8-methoxy-7-phenyl-1,3-dihydro-benzo[e][1,4]diazepin-2-one] | – | – | 72 | – | –
23 | COc1cccc(OC)c1-c1ccc2c(c1)C(c1cccc(C)c1)=NCC(=O)N2C [Example 115, 7-(2,6-Dimethoxy-phenyl)-1-methyl-5-m-tolyl-1,3-dihydro-benzo[e][1,4]diazepin-2-one] | 42 | 3 | – | 96 | –

Source: US7410963B2, “Benzo-1,4-diazepin-2-one derivatives as phosphodiesterase PDE2 inhibitors, preparation and therapeutic use thereof” (VIA Pharmaceuticals, Inc., priority 2003, dated 2008)
